Active and inactive are the calls of the source. The rule behind the calls is not given here.
Experiments:
K562 = experiment: Toxicity in human K562 cells assessed as reduction in cell viability at 100 uM after 72 hrs by Qb reagent based fluorescence assay; conditions: k562, 72 h
[1] = biological target: Butyrophilin subfamily 3 member A1 (Homo sapiens) (UniProt O00481); experiment: Binding affinity to BTN3A1 in human K562 cells assessed as induction of Vgamma9/Vdelta2 T cell-mediated interferon gamma release preincubated for 4 hrs followed by compound washout and subsequent Vgamma9Vdelta2 T cell addition measured after 20 hrs by ELISA; type: cell-based
[2] = biological target: Butyrophilin subfamily 3 member A1 (Homo sapiens) (UniProt O00481); experiment: Binding affinity to BTN3A1 in human PBMC-derived Vgamma9/Vdelta2 T cells assessed as induction of Vgamma9Vdelta2 T cells proliferation incubated for 3 days by gamma delta TCR/PE-CD3+ antibody staining based FACS analysis relative to HMBP analog; conditions: Vgamma9Vdelta2 T cell, time 3.0 day
[3] = Prodrug conversion in human K562 cells assessed as conversion of monoacid in allylic aldehyde form at 100 uM measured after 1 hr by LC-MS analysis; type: ADME, cell-based; conditions: k562, 1 h
[4] = Prodrug conversion in human K562 cells assessed as conversion of phosphonic monoacid in allylic aldehyde form at 100 uM measured after 1 hr by LC-MS analysis; type: ADME, cell-based; conditions: k562, 1 h
[5] = Prodrug conversion in human K562 cells assessed as conversion of free acid alcohol at 100 uM measured after 1 hr by LC-MS analysis; type: ADME, cell-based; conditions: k562, 1 h
[6] = Prodrug conversion in human K562 cells assessed as conversion of monoacid in allylic alcohol form at 100 uM measured after 1 hr by LC-MS analysis; type: ADME, cell-based; conditions: k562, 1 h
[7] = Prodrug conversion in human K562 cells assessed as conversion of phosphonic monoacid in allylic alcohol form at 100 uM measured after 1 hr by LC-MS analysis; type: ADME, cell-based; conditions: k562, 1 h
[8] = Prodrug conversion in human K562 cells assessed as glutathione conjugation at 100 uM measured after 1 hr by LC-MS analysis; type: ADME, cell-based; conditions: k562, 1 h
[9] = Prodrug conversion in human K562 cells assessed as dehydration by measuring DMAP monoacid formation at 100 uM measured after 1 hr by LC-MS analysis; type: ADME, cell-based; conditions: k562, 1 h

Butyrophilin subfamily 3 member A1 (Homo sapiens), sequence (O00481 30-513 limits assumed): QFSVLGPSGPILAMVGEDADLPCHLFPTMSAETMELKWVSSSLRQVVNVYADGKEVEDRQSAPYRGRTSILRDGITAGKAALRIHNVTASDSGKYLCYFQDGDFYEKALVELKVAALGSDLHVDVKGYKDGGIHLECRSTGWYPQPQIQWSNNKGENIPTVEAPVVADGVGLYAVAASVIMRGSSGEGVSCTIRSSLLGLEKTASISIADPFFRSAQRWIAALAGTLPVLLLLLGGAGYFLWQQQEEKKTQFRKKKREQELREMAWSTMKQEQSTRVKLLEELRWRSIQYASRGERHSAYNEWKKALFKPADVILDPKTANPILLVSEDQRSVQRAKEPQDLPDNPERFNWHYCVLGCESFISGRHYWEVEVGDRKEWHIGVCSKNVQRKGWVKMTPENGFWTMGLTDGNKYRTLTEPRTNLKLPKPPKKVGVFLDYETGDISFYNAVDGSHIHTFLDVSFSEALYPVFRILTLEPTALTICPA

Drug metabolism [4]	Structure (SMILES)	Activity (K562)	fold change (FC) [2]	Drug metabolism [3]	further results
Metabolite_Notdetected	C/C(=C\CCP(=O)(OCOC(=O)C(C)(C)C)OCOC(=O)C(C)(C)C)CO			Metabolite_Notdetected	Drug metabolism [6]: Metabolite_Detected; Drug metabolism [7]: Metabolite_Detected
	CCOC(=O)CNP(=O)(CC/C=C(C)/C=N/O)Oc1ccccc1 (stereo unspecified)		> 2100	Metabolite_Detected	
	C/C(C=O)=C\CCP(=O)(OCOC(=O)C(C)(C)C)Oc1ccc2ccc(=O)oc2c1 (stereo unspecified)		2		Activity [1]: Active
Metabolite_Detected	C/C(C=O)=C\CCP(=O)(OCOC(=O)C(C)(C)C)OCOC(=O)C(C)(C)C	Toxic	9	Metabolite_Detected	Drug metabolism [8]: Metabolite_Detected; Drug metabolism [5]: Metabolite_Detected; Drug metabolism [9]: Metabolite_Detected
	CCOC(=O)CNP(=O)(CC/C=C(\C)C=O)Oc1ccccc1 (stereo unspecified)		56	Metabolite_Detected	
	C/C(C=O)=C\CCP(=O)(NCC(=O)OC(C)C)Oc1ccccc1 (stereo unspecified)		45		
	COC(=O)CNP(=O)(CC/C=C(\C)C=O)Oc1ccccc1 (stereo unspecified)	Toxic	31		

Structure (SMILES)	Drug metabolism [4]	Activity (K562)	fold change (FC) [2]	Drug metabolism [3]	further results
C/C(C=O)=C\CCP(=O)(OCOC(=O)C(C)(C)C)Oc1ccc2ccccc2c1 (stereo unspecified)	Metabolite_Detected	Toxic	2	Metabolite_Detected	Activity [1]: Active; Drug metabolism [5]: Metabolite_Detected

Source: ChEMBL document CHEMBL4673393, “Synthesis and Metabolism of BTN3A1 Ligands: Studies on Modifications of the Allylic Alcohol” (ACS Med Chem Lett, 2021)
